# Data: patent publication US6087361A, “Aryl-imidazolines and aryl-imidazoles useful as α-2 adrenergic agonists without cardiovascular side effects” (Allergan Sales, Inc., priority 1997, dated 2000)
# pKi: −log10 of the molar value.
# Tests used:
# [1] = test system: imidazoline receptors and α2 adrenoceptors; details: cited from earlier work
# [2] = cited from earlier work
# [3] = molecular target: I2B; experiment: Receptor binding, I2B
# [4] = molecular target: α1; experiment: Receptor binding, [3H]prazosin, human cerebral cortex membranes (HCC); details: 22° C., 30 min
# Method: Tissue preparation: Membrane suspensions were prepared from human cerebral cortex ([…], for α1 receptors) obtained from the UCI Organ and Tissue Bank. Briefly, tissues (1 g) were homogenized in 25 mL of ice-cold 5 mM Tris, pH 7.4 with a Polytron homogenizer for 30 sec at setting #7, and centrifuged for
# 10-12 minutes at 300× g at 4° C. The supernatant was filtered through 2 layers of gauze and diluted 1:2 with 50 mM Tris-HCl buffer, pH 7.4, then centrifuged at 49,000× g for 20 minutes. The pellet fraction was washed 3 times (resuspended in Tris-HCl buffer and centrifuged for 20 minutes; at 49,000× g). The pellet was then stored at -80° C. until the binding assay.
# (§1) Binding Studies: The radioligands [^3 H]rauwolscine (specific activity 80 Ci/mmol) and [^3 H]prazosin (specific activity 76 Ci/mmol) were obtained from New England Nuclear, Boston, Mass. Frozen membrane pellet was resuspended in 25 mM glycine/glycine, pH 7.5 and incubated with radioligand under the following conditions: CHO-C10, CHO-RNG, CHO-C4-[^3 H]rauwolscine, 22° C., 30 minutes; RKC-[^3 H]rauwolscine, 0° C., 120 minutes; and, HCC-[^3 H]prazosin, 22° C., 30 minutes in a final volume of 500 ul. At the end of the incubation period, the samples were filtered through glass filters (Whatman GF/B) in a 96 well cell harvester and rapidly washed four times with 4 mL of iced-cold 50 mM Tris-HCl buffer. The filters were then oven dried and transferred to scintillation vials containing 10 mL of Beckman's Ready Protein® scintillation cocktail for counting. […] Protein concentrations were determined with a protein assay kit from Bio Rad. Binding isotherms, equilibrium dissociation and affinity constants were analyzed and determined by the non-linear least squares curve fitting programs EBDA (BioSoft) or AccuFit Competition/Saturation by Beckman.
# (§2) The radioligands [^3 H] rauwolscine (specific activity 80 Ci/mmol) and [^3 H] prazosin (specific activity 76 Ci/mmol) were obtained from New England Nuclear, Boston, Mass. Frozen membrane pellet was resuspended in 25 mM glycine/glycine, pH 7.4 and incubated with radioligand under the following conditions: CHO-C10, CHO-RNG, CHO-C4-[^3 H]rauwolscine, 22° C., 30 min.; and, HCC-[^3 H]prazowsin, 22° C., 30 minutes in a final volume of 500 ul. At the end of the incubation period, the samples were filtered through glass fiber filters (Whatman GF/B) in a 96 well cell harvester and rapidly washed four times which 4 mL of iced-cold 50 mM Tris-CHI buffer. The filters were then oven dried and transferred to scintillation vials containing 5 mL of Beckman's Ready Protein® scintillation cocktail for counting. […] Protein concentrations were determined with a protein assay kit from Bio lad. Binding isotherms, equilibrium dissociation and affinity constants were analyzed and determined by the non-linear least squares curve fitting programs AccuFit Competition/Saturation by Beckman.
# (§3) Representative compounds of the present invention were tested according to the procedures given above. […] The receptor binding studies and K1 are measures of the affinity of a compound for a particular receptor.
# [5] = molecular target: I1 imidazoline receptor; experiment: I1 imidazoline receptor binding assay, 3H-clonidine, bovine VLM membranes; details: 25° C., 50 min
# Method: Fresh bovine brain stems were obtained from a local slaughter house. After removal of pia-arachnoid, the medulla was isolated by dissecting the brain stem about 1 cm posterior and 1 cm caudal to the obex. The ventral quadrants of the medulla excluding the pyramids were used as the VLM. For each preparation, 30 to 40 VLM were used. Initial homogenization was performed in 20 volumes of 5 mM HEPES buffer (pH 7.4 at 4° C.) containing 250 mM sucrose, 50 uM Calpain I inhibitor (Boehginer Mannheim, Indianapolis, Ind.), 100 uM 1,10-phenanthroline (Sigma, St. Louis, Mo.) and 50 uM Pefabloc (Boehginer Mannheim, Indianapolis, Ind.), using Virtis homogenizer at setting 7 with three 10 second pulses, followed by three passes in a teflon-glass tissue homogenizer. The inhibitors were added to prevent degradation by proteases and peptidases. The homogenates were then centrifuged at 1000× g for 10 min and the resulting pellets were re-homogenized and centrifuged. Supernatants resulted from both runs were combined and centrifuged for 20 min at 48000× g. The pellets obtained were resuspended in a teflon-glass homogenizer in 50 mM Tris-HCl with 5 mM EDTA (pH 7.7 at 4° C.), centrifuged, and resuspended in 50 mM Tris-HCl with 25 mM NaCl, pH 7.7 at room temp. To remove endogenous ligands, the homogenate was incubated 30 min at room temp before it was centrifuged for 20 min at 48000× g. The pellets were then washed with 50 mM Tris-HCl buffer, (pH 7.4 at 4° C.) and loaded on top of 5 mM HEPES/0.85 M sucrose (pH 7.4 at 4° C.). Pellets obtained after centrifugation at 48000× g for 20 min were saved. The fatty connective tissue on the top layer was discarded. The partially purified VLM membrane pellets were then washed twice with 50 mM Tris-HCl, pH 7.7 at 4° C., flash frozen in dry ice/acetone slush, and stored at -100° C. until use. Receptor binding experiments were performed within days after the membrane preparation.
# I1 imidazoline receptor binding affinity was determined from radioligand binding of ^3 H-clonidine (NEN, Boston, Mass.) to bovine VLM membranes. Specific activity of ^3 H-clonidine was 43 Ci/mmol. Kd of ^3 H-clonidine binding to the I1 imidazoline receptor was determined by saturation experiments and Ki of other ligands studied were determined by competition experiments. The radioligand binding assay was performed in Teflon 96-wells with the Biomek-1000 robotics (Beckman Instruments, Fullerton, Calif.). Each well contained […] ^3 H-Clonidine and 0.3 to 0.5 mg of bovine VLM protein in 5 mM HEPES buffer containing 0.5 mM EGTA and 0.5 mM MgCl2, pH 7.4 (0.1 mM ascorbic acid was added just before the protein). After 50 min of incubation at 25° C., the reaction was terminated by rapid filtration over Whatman GF/B filters treated with 0.1% polyethyleneimine and washed with 12 ml ice cold 50 mM Tris-HCl, pH 7.4 at 4° C. in a Brandel Harvester (Brandel, Gaithersburg, Md.). Both `hot` and `cold` saturation experiments were performed. In `hot` saturation experiments, studies were performed with ^3 H-clonidine ranging from 0.1 to 50 nM. In `cold` saturation experiments, studies were performed with 2 nM ^3 H-clonidine with 20 different concentrations of the unlabeled clonidine, ranging from 0.1 nM to 1 uM unlabeled clonidine. Non specific binding was defined by parallel incubations containing 10^-5 M phentolamine or naphazoline. Imidazoline binding was determined by parallel incubations in which the alpha-adrenergic sites were masked with 10^-5 M norepinephrine. During competition experiments, ligands of 20 concentrations ranged from 10^-11 to 10^-4 were used. Radioactivity was counted in a Beckman LS-3801 scintillation counter. Data were captured and analyzed with Accufit saturation and competition softwares modeled both for one-site and two-site fits (Beckman Instruments, Fullerton, Calif.) using an IBM compatible computer. All experiments were repeated at least twice.
# [6] = molecular target: I2A; experiment: Receptor binding, I2A
# [7] = test system: α2 receptors; details: cited from earlier work
# [8] = test system: α2A; details: cited from earlier work
# [9] = test system: α1 receptors; details: prazosin vs yohimbine; cited from earlier work
# [10] = molecular target: T1, human α2C (Homo sapiens, UniProt P18825); experiment: Receptor binding, [3H]rauwolscine, CHO-C4 cells expressing human α2C; details: CHO-C4, 22° C., 30 min
# T1 construct: expressed in transfected cells; host or cells: CHO cells (CHO-C4)
# T1 sequence (P18825 1-462): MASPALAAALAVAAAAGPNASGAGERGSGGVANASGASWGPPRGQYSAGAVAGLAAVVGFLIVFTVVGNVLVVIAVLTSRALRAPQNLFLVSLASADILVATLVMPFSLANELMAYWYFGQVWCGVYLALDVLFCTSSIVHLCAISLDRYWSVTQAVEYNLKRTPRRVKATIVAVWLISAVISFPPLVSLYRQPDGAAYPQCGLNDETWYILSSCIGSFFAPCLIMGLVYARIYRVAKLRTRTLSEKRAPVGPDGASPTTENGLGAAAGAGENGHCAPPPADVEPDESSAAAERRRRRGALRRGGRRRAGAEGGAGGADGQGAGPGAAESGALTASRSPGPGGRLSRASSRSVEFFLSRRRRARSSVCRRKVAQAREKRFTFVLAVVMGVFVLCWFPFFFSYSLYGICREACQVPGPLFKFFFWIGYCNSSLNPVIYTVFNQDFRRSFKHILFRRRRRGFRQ
# Method: Cell preparation: Chinese hamster ovary (CHO) cells expressing the human α2A and human α2C (CHO-C10 and CHO-C4 respectively) receptors and CHO cells (CHO-RNG) expressing the rat α2B, adrenoceptor were grown to near confluence in Dulbecco's modified Eagle's medium supplemented with 10% fetal bovine serum using standard cell culture methods. Cells were harvested by scraping and placed into cold buffer of the following composition: 50 mM Tris-HCl, 5 mM EDTA, pH 7.4). […] The pellet fraction was washed (resuspended in Tris-HCl, pH 8 buffer and centrifuged for 15-20 minutes at 49,000× g) 2 times and stored at -100° until binding assay.
# as §1, §2, §3
# [11] = rabbit, in vivo
pKi [3],pKi [4],pKi [5],pKi [6],SMILES,also measured
–,–,–,–,C1COC(NC(C2CC2)C2CC2)=N1 [rilmenidine],"selectivity for imidazoline receptors (in words) [1]: more selective for imidazoline receptors than for α2 -adrenoceptors; side effects compared to clonidine ([2]; equihypotensive doses): less bradycardia and reduction in cardiac output, less sedation, and little or no antinociceptive action compared to clonidine"
6.16,5.67,6.35,5.11,Cc1c(Nc2ncc[nH]2)ccc2c1OCCO2 [Example 21],–
5.03,4.83,5.28,4.57,Cc1c(Nc2ncc[nH]2)ccc2c1NCCO2 [Example 17],–
–,–,–,–,COC(=O)[C@@H]1[C@H]2C[C@H]3c4[nH]c5ccccc5c4CCN3C[C@@H]2CC[C@@H]1O [yohimbine],relative potency at α2 receptors (in words) ([7]; yohimbine vs prazosin): more potent than prazosin
6.75,5.12,7.89,5.21,COc1ccc(Nc2ncc[nH]2)c(C)c1 [Example 19],–
–,–,–,–,Cc1cccc([C@H](C)c2cnc[nH]2)c1C [dexmedetomidine],α2A selectivity (in words) [8]: a2A selective
5.57,6.70,5.13,4.89,Cc1cc(C(C)(C)C)c(O)c(C)c1CC1=NCCN1 [Example 23],–
4.00,4.41,7.25,4.00,COc1nc(C)nc(Cl)c1NC1=NCCN1 [Example 6],–
–,–,–,–,COc1cc2nc(N3CCN(C(=O)c4ccco4)CC3)nc(N)c2cc1OC [prazosin],relative potency at α1 receptors (in words) [9]: more potent that yohimbine
7.44,4.51,6.64,5.20,Cc1c(Nc2ncc[nH]2)ccc2nccnc12 [Example 24],pKi [10]: 6.67
–,–,–,–,Clc1cccc(Cl)c1N=C1NCCN1 [clonidine],α2 adrenergic mechanism of action (in words) [7]: centrally acting α2 adrenergic partial agonist; binding to α2 and imidazoline receptors (in words) [1]: binds to both α2 and imidazoline receptors; IOP of the untreated eye (systemic effect) [11]: the IOP of the untreated eye is lowered to the same extent as the treated eye; cardiovascular effect (in words) ([2]; in vivo): hypotensive cardiovascular effects

SMILES,pKi [3],pKi [4],pKi [5],pKi [6],also measured
Clc1cccc(Cl)c1NC1=NCCN1 [Example 2],4.90,–,8.05,5.00,–
Brc1c(NC2=NCCN2)ccc2nccnc12 [Example 5],6.21,5.73,7.77,5.14,–
